This is an account of results in publication PMC8427794 (ACS Omega, 2021).

Where two headings read alike, the source gives them in different places. Bounds are passed on as bounds.

The nature of series [1]: Rat liver microsomal stability. Format: in vitro ADME. To be noted: incubation with microsomes for 15 min at 5 μM. (In general: Liver microsomes are vesicles of endoplasmic reticulum, rich in cytochrome P450 enzymes.)
Series [2] is described as follows: Human liver microsomal stability. In kind it is in vitro ADME. To be noted: incubation with microsomes for 15 min at 5 μM.
The target of series [3] is T1, mGlu2 receptor (Homo sapiens, UniProt Q14416). The series is described as follows: [35S]GTPγS binding assay, agonist mode. The settings on record: for Emax: read-out: mGlu2 Ago EMAX ±SD. Format: biochemical. Background: Binding of GTPγS marks nucleotide exchange on a G protein.
The nature of series [4]: Brain and plasma kinetics in rat after a single dose. Format: in vivo, male Sprague Dawley rat.
The target of the next series is mGlu7 (Homo sapiens, UniProt Q14831). The series is described as follows: Selectivity panel, mGlu7 Ca2+ assay. In kind it is cell-based.
The target in the next series is mGlu5 (Homo sapiens, UniProt P41594). The experiment in a line: Selectivity panel, mGlu5 Ca2+ assay. In kind it is cell-based.
The next series addresses mGlu6 (Rattus norvegicus, UniProt P35349). The experiment in a line: Selectivity panel, mGlu6 [35S]GTPγS binding. Format: biochemical.
The next series deals with mGlu3 (Homo sapiens, UniProt Q14832). The series is described as follows: Selectivity panel, mGlu3 Ca2+ assay. In kind it is cell-based.
The target of the next series is mGlu8 (Homo sapiens, UniProt O00222). The experiment in a line: Selectivity panel, mGlu8 Ca2+ assay. In kind it is cell-based.
The next series has as its target mGlu1 (Homo sapiens, UniProt Q13255). The series is described as follows: Selectivity panel, mGlu1 Ca2+ assay. Format: cell-based.
The target of another series is mGlu4 (Homo sapiens, UniProt Q14833). The experiment in a line: Selectivity panel, mGlu4 assay. Format: cell-based.
In series [5] the target is T1, mGlu2 receptor. The experiment in a line: [35S]GTPγS binding assay, PAM mode. In kind it is biochemical.
[6] abbreviates: male, Sprague Dawley, brain, sc, 10 mg/kg.
[7] abbreviates: male, Sprague Dawley, brain/plasma, sc, 10 mg/kg.
Where [8] appears, read: male, Sprague Dawley, plasma, sc, 10 mg/kg, pH 3.
[9] abbreviates: male, Sprague Dawley, plasma, sc, 10 mg/kg.
[10] abbreviates: male, Sprague Dawley, brain, po, 10 mg/kg.
Where [11] appears, read: male, Sprague Dawley, plasma, po, 10 mg/kg.

mGlu6, sequence (P35349 24-871): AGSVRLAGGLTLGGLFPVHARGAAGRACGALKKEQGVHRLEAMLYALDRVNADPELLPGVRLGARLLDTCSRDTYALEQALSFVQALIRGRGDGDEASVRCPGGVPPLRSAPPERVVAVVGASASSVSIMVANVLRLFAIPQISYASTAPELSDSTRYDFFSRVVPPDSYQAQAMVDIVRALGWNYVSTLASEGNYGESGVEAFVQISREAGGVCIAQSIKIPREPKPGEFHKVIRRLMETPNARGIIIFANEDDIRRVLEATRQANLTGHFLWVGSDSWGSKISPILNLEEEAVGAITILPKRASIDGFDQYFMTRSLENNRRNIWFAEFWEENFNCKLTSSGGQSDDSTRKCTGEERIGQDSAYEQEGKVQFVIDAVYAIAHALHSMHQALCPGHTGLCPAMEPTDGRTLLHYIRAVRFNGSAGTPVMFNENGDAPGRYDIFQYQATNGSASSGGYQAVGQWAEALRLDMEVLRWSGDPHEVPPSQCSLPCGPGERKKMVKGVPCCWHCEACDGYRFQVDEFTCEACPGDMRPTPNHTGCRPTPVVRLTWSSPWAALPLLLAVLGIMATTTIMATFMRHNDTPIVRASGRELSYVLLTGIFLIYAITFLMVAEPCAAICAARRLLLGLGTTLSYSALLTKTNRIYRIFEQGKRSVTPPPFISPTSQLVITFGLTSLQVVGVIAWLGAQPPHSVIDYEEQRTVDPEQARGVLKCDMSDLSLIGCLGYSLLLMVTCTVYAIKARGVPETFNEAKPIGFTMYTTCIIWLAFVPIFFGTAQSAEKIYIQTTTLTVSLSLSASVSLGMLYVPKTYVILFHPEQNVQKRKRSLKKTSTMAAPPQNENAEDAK
mGlu1, sequence (Q13255 19-1194): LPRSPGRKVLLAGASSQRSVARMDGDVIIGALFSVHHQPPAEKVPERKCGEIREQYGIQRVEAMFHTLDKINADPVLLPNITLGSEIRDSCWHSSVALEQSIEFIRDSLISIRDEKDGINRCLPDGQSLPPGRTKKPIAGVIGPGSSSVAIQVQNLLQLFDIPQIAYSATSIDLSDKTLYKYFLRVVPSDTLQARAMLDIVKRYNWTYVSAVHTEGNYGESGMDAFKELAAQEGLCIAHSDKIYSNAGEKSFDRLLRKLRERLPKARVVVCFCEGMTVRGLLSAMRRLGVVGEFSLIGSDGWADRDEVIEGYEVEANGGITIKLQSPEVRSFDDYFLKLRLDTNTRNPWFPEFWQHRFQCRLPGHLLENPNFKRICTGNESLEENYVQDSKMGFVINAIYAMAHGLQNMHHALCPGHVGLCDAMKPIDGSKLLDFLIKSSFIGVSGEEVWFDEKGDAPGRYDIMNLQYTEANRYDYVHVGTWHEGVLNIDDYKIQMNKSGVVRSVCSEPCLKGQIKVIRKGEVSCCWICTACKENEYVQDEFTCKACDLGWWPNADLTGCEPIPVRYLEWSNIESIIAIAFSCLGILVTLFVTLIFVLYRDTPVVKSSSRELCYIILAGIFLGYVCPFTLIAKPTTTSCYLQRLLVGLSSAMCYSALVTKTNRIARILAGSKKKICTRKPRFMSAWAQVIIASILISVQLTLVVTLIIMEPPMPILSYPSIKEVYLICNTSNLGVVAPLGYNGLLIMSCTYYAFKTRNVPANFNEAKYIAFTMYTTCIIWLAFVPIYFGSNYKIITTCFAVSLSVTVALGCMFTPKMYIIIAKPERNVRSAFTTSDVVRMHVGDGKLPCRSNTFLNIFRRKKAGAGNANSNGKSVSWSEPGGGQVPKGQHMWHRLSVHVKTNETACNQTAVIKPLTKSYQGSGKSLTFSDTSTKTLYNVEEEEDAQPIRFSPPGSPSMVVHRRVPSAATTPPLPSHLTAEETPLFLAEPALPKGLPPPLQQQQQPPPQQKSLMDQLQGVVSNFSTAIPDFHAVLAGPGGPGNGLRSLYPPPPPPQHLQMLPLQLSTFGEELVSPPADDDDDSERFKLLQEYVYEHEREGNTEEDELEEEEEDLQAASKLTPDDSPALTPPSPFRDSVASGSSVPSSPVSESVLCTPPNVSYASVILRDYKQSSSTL
mGlu7, sequence (Q14831 35-915): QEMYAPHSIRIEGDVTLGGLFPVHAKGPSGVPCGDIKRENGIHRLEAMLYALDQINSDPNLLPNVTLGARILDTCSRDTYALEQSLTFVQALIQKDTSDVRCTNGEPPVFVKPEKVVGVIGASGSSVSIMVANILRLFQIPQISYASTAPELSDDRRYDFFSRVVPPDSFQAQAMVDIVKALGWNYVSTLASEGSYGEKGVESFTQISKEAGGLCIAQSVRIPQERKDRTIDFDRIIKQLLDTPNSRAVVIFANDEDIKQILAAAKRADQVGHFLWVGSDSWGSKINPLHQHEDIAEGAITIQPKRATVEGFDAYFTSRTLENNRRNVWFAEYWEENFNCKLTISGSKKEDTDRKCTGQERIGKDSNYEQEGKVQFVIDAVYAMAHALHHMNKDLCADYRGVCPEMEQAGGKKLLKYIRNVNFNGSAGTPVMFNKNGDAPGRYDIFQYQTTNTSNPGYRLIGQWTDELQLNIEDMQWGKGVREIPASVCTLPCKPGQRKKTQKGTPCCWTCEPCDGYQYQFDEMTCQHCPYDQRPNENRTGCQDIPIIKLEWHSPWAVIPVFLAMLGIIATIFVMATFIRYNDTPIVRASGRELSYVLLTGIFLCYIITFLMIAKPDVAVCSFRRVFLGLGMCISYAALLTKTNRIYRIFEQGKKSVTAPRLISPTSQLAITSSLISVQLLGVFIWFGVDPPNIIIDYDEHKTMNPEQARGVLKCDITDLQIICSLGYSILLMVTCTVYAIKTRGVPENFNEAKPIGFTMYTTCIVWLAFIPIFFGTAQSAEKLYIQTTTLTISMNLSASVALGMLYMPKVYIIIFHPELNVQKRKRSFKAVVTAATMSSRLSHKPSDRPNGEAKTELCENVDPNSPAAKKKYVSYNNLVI
mGlu5, sequence (P41594 21-1212): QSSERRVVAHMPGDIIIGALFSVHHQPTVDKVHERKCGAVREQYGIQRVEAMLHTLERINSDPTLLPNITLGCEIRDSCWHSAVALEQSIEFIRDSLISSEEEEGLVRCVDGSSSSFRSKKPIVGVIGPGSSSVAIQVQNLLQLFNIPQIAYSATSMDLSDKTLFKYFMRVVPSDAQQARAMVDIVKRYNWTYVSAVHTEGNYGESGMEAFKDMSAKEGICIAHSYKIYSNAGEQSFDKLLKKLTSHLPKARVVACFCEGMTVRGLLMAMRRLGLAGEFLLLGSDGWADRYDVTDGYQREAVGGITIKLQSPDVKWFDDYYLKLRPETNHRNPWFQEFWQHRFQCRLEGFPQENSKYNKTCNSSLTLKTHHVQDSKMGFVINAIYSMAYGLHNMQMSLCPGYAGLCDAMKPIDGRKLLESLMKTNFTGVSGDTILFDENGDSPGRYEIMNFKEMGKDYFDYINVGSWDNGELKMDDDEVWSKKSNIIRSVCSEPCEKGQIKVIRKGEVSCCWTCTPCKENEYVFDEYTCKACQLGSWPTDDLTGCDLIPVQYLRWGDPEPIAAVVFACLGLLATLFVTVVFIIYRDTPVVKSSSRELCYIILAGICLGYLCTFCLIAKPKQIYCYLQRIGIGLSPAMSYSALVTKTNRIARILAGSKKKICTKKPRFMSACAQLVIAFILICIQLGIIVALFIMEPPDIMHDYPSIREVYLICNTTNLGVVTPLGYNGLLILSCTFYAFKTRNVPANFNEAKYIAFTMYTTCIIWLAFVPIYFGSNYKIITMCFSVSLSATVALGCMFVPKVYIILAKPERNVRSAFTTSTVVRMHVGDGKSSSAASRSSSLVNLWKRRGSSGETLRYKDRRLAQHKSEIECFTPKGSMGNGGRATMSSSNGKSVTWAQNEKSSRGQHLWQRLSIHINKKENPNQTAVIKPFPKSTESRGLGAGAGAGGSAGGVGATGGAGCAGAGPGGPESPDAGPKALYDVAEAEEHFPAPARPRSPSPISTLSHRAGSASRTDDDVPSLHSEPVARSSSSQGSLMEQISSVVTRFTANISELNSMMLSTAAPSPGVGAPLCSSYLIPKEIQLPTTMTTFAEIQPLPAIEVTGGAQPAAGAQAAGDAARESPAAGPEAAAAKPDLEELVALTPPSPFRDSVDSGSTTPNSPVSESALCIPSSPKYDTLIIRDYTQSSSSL
mGlu3, sequence (Q14832 23-879): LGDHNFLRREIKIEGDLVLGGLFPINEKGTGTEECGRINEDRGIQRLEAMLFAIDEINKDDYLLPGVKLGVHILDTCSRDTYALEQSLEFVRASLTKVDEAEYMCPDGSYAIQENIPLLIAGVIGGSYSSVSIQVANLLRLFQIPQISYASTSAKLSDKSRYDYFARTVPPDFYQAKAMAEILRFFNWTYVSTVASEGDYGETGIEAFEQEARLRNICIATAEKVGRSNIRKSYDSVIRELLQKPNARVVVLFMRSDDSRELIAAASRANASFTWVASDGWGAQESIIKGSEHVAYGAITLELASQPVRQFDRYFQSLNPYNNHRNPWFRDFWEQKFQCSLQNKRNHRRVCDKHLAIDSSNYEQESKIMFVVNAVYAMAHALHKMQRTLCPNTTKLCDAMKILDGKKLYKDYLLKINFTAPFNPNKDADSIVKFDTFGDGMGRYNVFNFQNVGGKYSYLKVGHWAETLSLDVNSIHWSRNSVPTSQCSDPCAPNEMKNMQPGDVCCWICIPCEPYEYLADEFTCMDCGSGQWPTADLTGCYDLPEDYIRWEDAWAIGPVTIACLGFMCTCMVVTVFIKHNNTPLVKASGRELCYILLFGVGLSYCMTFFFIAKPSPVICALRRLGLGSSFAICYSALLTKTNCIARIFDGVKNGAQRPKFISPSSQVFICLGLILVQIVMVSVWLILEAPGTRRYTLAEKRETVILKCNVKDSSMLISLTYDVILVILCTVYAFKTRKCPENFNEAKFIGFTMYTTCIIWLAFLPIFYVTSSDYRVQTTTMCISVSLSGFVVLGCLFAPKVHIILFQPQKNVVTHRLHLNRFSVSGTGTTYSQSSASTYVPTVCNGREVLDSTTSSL

Consider `CCCCn1ccn2c(CN3CCC(c4ccccc4)CC3)c(C)nc2c1=O` [Compound 3a], for which the “RLM (%), percentage of compound metabolized” value (“RLM (%), percentage” for short) in series [1] amounted to 58%. In addition, in series [2], the “HLM (%), percentage of compound metabolized” value (shortened to “HLM (%), percentage”) is 20%.

As for `CCCCn1ccn2c(-c3ccc(Oc4ccc(C)nc4C)c(F)c3)c(C)nc2c1=O` [Compound 3c], at mGlu2 receptor [3], the EC50 worked out at 1.82 µM and the Emax was 54%. This molecule came in with a concentration at 1 h in [4] (setting [6]) of 446 ng/g. For the same molecule, the concentration ratio (Kp) at 1 h in [4] (setting [7]) amounted to 0.2. In addition, the concentration at 1 h in series [4] (setting [8]) was determined as 1820 ng/mL. Also, in [1], the “RLM (%), percentage” value is listed as 56%. Moreover, the “HLM (%), percentage” value in series [2] is given as 24%.

As to `CCCCn1ccn2c(-c3ccc(NCc4ccc(OC)nc4)cc3)c(C)nc2c1=O` [Compound 3d], at mGlu2 receptor [3], it took 0.571 µM to reach a half-maximal effect (EC50) and the Emax was determined as 47 ± 1%. In addition, the Kp at […] in series [4] (setting [7]) was 0.3. Moreover, in [1], the “RLM (%), percentage” value is recorded as 36%. The “HLM (%), percentage” value in series [2] was determined as 59%.

`CCCCn1ccn2c(-c3ccc(OCC4CC4)c(Cl)c3)c(C)nc2c1=O` [Compound 3e]: the concentration at 1 h came out at 2540 ng/g in series [4] (setting [6]) and 1420 ng/mL in [4] (setting [8]). Also, the concentration at 2 h turned out to be 2860 ng/g in series [4] (setting [6]) and 1390 ng/mL in [4] (setting [9]). The results for the concentration at 4 h in [4] (setting [6]) and in series [4] (setting [9]) were 835 ng/g and 526 ng/mL, respectively. Besides, the concentration giving a half-maximal response (EC50) was over 25 µM on mGlu7; over 25 µM on mGlu7 (read-out: mGlu7 agonism EC50, Ca2+ read-out); over 30 µM at mGlu5; over 30 µM at mGlu5 (read-out: mGlu5 agonism EC50, Ca2+ read-out); over 30 µM at mGlu6; 14.3 µM on mGlu3 (mGlu3 PAM EC50, Ca2+ read-out). Also, the concentration for a half-maximal effect (EC50) on mGlu3 (mGlu3 agonism EC50, Ca2+ read-out) is over 30 µM; at mGlu8, over 25 µM; on mGlu8 (read-out: mGlu8 agonism EC50, Ca2+ read-out) it was over 25 µM; on mGlu1, over 30 µM; at mGlu4, over 25 µM. The IC50 was 8.32 µM on mGlu7; over 30 µM at mGlu5; 26.5 µM on mGlu6; over 30 µM on mGlu3; over 25 µM against mGlu8; over 30 µM against mGlu1. The molecule also yielded an IC50 against mGlu4 of 17 µM. Besides, the Emax is 5% at mGlu7 (read-out: mGlu7 PAM Emax); 1% on mGlu7 (read-out: mGlu7 agonism Emax); 27% at mGlu7 (read-out: mGlu7 antagonism Emax); 0% on mGlu5 (read-out: mGlu5 PAM Emax); 0% on mGlu5 (read-out: mGlu5 agonism Emax); 7% at mGlu5 (read-out: mGlu5 antagonism Emax). In addition, the Emax was 1% at mGlu6 (read-out: mGlu6 agonism Emax); 53% at mGlu6 (read-out: mGlu6 antagonism Emax); 63% on mGlu3 (read-out: mGlu3 PAM Emax); 2% on mGlu3 (read-out: mGlu3 agonism Emax); 15% at mGlu3 (read-out: mGlu3 antagonism Emax); -4% on mGlu8 (read-out: mGlu8 agonism Emax). In addition, the Emax is 16% on mGlu8 (read-out: mGlu8 antagonism Emax); 4% at mGlu1 (read-out: mGlu1 agonism Emax); 18% at mGlu1 (read-out: mGlu1 antagonism Emax); 5% at mGlu4 (read-out: mGlu4 agonism Emax); 100% at mGlu4 (read-out: mGlu4 antagonism Emax). In addition, the “RLM (%), percentage” value in [1] was determined as 49%. In addition, the “HLM (%), percentage” value in [2] is 20%.

As to `CCCCn1ccn2c(-c3ccc(N4CCNCC4)c(Cl)c3)c(C)nc2c1=O` [Compound 3g], on mGlu2 receptor [3], the concentration giving a half-maximal response (EC50) was found to be 0.989 µM and the Emax turned out to be 36 ± 4%. In addition, in series [1], the “RLM (%), percentage” value was found to be 17%. For the same molecule, in series [2], the “HLM (%), percentage” value was found to be 0%.

For `CCCCn1ccn2c(-c3ccc4c(ccn4-c4cccnc4)c3)c(C)nc2c1=O` [Compound 3i], on mGlu2 receptor [3], the EC50 was 0.229 µM and the Emax was 44%. Also, the “RLM (%), percentage” value in [1] came to 47%. Moreover, the “HLM (%), percentage” value in series [2] amounted to 35%.

On to `CCCCn1ccn2c(-c3ccc(Oc4ccccc4)cc3)c(C)nc2c1=O` [Compound 3j], for which, on mGlu2 receptor [3], the EC50 was found to be 0.151 µM and the Emax was determined as 48 ± 2%. Also, the “brain level 4 h” value in [4] (10 mg/kg p.o., 4 h) is “BQL ^d”. In series [4] (setting [10]), this molecule had a concentration at 1 h of 104 ng/g and a concentration at 2 h of 92 ng/g. Further, the Kp at 2 h in [4] (male, Sprague Dawley, brain/plasma, po, 10 mg/kg) is 0.5. In [4] (setting [11]), this molecule registered a concentration at 1 h of 263 ng/mL, a concentration at 2 h of 192 ng/mL and a concentration at 4 h of 14 ng/mL. Also, the “RLM (%), percentage” value in [1] was found to be 86%. Also, the “HLM (%), percentage” value in series [2] is 2%.

Take `CCCCn1ccn2c(-c3ccc(OCC4CC4)c(Cl)c3)nnc2c1=O` [Compound 4a, 7-Butyl-3-[3-chloro-4-(cyclopropylmethoxy)phenyl]-[1,2,4]triazolo[4,3-a]pyrazin-8-one]: the “RLM (%), percentage” value in [1] was determined as 45%. In addition, the “HLM (%), percentage” value in series [2] amounted to 2%.

Consider `CCCCn1cnn2c(-c3ccc(OCC4CC4)c(Cl)c3)cnc2c1=O` [Compound 4b, 3-Butyl-7-[3-chloro-4-(cyclopropylmethoxy)phenyl]imidazo[2,1-f][1,2,4]triazin-4-one], for which the “RLM (%), percentage” value in series [1] was 25%. In addition, in series [2], the “HLM (%), percentage” value was determined as 1%.

For `CCCCn1ncn2c(-c3ccc(OCC4CC4)c(Cl)c3)cnc2c1=O` [Compound 4c, 7-Butyl-3-[3-chloro-4-(cyclopropylmethoxy)phenyl]imidazo[1,2-d][1,2,4]triazin-8-one], the “RLM (%), percentage” value in [1] was 21%. For the same molecule, in series [2], the “HLM (%), percentage” value came out at 4%.

With `CCCCn1cnc2c(-c3ccc(OCC4CC4)c(Cl)c3)c(C)nn2c1=O` [Compound 4d, 3-Butyl-8-[3-chloro-4-(cyclopropylmethoxy)phenyl]-7-methyl-pyrazolo[1,5-a][1,3,5]triazin-4-one], in series [1], the “RLM (%), percentage” value is 60%. In series [2], the “HLM (%), percentage” value came out at 0%.

With `CCCCn1ccn2c(-c3ccc(OCC4CC4)c(Cl)c3)nc(C)c2c1=O` [Compound 4e, 7-Butyl-3-[3-chloro-4-(cyclopropylmethoxy)phenyl]-1-methyl-imidazo[1,5-a]pyrazin-8-one], the “fold decrease in mGlu2 PAM potency vs 3e” value on mGlu2 receptor [5] was about 10 fold. Also, at mGlu2 receptor [3], the EC50 is over 50.1 µM and the Emax worked out at 12%. Further, the “RLM (%), percentage” value in series [1] was 74%. The “HLM (%), percentage” value in [2] is 31%.

By EC50 is commonly meant the concentration at which the effect is half-maximal. The Emax is the maximal effect, on the per cent scale that the assay sets. One may read the Kp as the ratio of the level in a tissue or fluid to that in plasma or blood. A word on the IC50: it is the concentration needed to halve the response being measured. A low value points to greater potency in that assay.
